In the NIST ThermoML archive (doi:10.1021/je3011979):

Columns and labels:
[1] = xn = mol fraction of the nth substance listed; conditions: 101 kPa, Liquid, Vibrating tube method
[2] = excess molar enthalpy (molar enthalpy of mixing); xn = mol fraction of the nth substance listed; conditions: 291.15 K, 101 kPa, Liquid, Calvet calorimetry

CCCOC(C)=O [propyl ethanoate] + CCCCCCC
[1]
Conditions	mass density [kg/m3]
291.15 K, x1 = 0.0086	686.6
291.15 K, x1 = 0.032	690.1
291.15 K, x1 = 0.0864	698.2
291.15 K, x1 = 0.1706	711.3
291.15 K, x1 = 0.2573	725.7
291.15 K, x1 = 0.3308	738.6
291.15 K, x1 = 0.3974	750.9
291.15 K, x1 = 0.4644	763.7
291.15 K, x1 = 0.5398	778.9
291.15 K, x1 = 0.6055	792.8
291.15 K, x1 = 0.6723	807.4
291.15 K, x1 = 0.7257	819.6
291.15 K, x1 = 0.8	837.2
291.15 K, x1 = 0.8457	848.5
291.15 K, x1 = 0.9057	864
291.15 K, x1 = 0.9708	881.6
291.15 K, x1 = 1	889.6
298.15 K, x1 = 0.0149	681.8
298.15 K, x1 = 0.0308	684
298.15 K, x1 = 0.0953	693.5
298.15 K, x1 = 0.168	704.8
298.15 K, x1 = 0.2358	715.8
298.15 K, x1 = 0.3084	728.2
298.15 K, x1 = 0.375	740.2
298.15 K, x1 = 0.4386	752.1
298.15 K, x1 = 0.5062	765.3
298.15 K, x1 = 0.5643	777.2
298.15 K, x1 = 0.6488	795.2
298.15 K, x1 = 0.6684	799.5
298.15 K, x1 = 0.7446	816.9
298.15 K, x1 = 0.793	828.4
298.15 K, x1 = 0.8688	847.3
298.15 K, x1 = 0.91	858
298.15 K, x1 = 0.9508	868.8
298.15 K, x1 = 1	882.5
318.15 K, x1 = 0.0291	666.1
318.15 K, x1 = 0.0843	673.9
318.15 K, x1 = 0.1595	685.1
318.15 K, x1 = 0.23	696.3
318.15 K, x1 = 0.2972	707.3
318.15 K, x1 = 0.3638	718.8
318.15 K, x1 = 0.4295	730.8
318.15 K, x1 = 0.4902	742.3
318.15 K, x1 = 0.553	754.6
318.15 K, x1 = 0.6057	765.4
318.15 K, x1 = 0.6734	779.8
318.15 K, x1 = 0.726	791.4
318.15 K, x1 = 0.7727	802.1
318.15 K, x1 = 0.7949	807.7
318.15 K, x1 = 0.8645	824.4
318.15 K, x1 = 0.9242	839.3
318.15 K, x1 = 1	859.8
328.15 K, x1 = 0.0373	658.5
328.15 K, x1 = 0.0866	665.4
328.15 K, x1 = 0.1645	676.8
328.15 K, x1 = 0.2401	688.6
328.15 K, x1 = 0.3096	700
328.15 K, x1 = 0.3783	711.8
328.15 K, x1 = 0.4478	724.3
328.15 K, x1 = 0.5142	736.8
328.15 K, x1 = 0.5756	748.9
328.15 K, x1 = 0.6377	761.7
328.15 K, x1 = 0.6884	772.5
328.15 K, x1 = 0.756	787.5
328.15 K, x1 = 0.8074	799.5
328.15 K, x1 = 0.856	811.2
328.15 K, x1 = 0.9097	824.7
328.15 K, x1 = 0.9638	838.7
328.15 K, x1 = 1	848.3

[2]
Conditions	excess molar enthalpy [kcal/mol]
x1 = 0.0996	0.104
x1 = 0.2001	0.181
x1 = 0.2956	0.2392
x1 = 0.3852	0.2725
x1 = 0.4642	0.2849
x1 = 0.5309	0.2856
x1 = 0.588	0.2746
x1 = 0.638	0.2565
x1 = 0.656	0.25
x1 = 0.7113	0.2266
x1 = 0.7717	0.1936
x1 = 0.8326	0.153
x1 = 0.8942	0.104
x1 = 0.9501	0.054
